Target: Cyclin-dependent kinase 2/G1/S-specific cyclin-E1 (Homo sapiens, UniProt P24941+P24864)
Experiment: TR-FRET Assay
Protocol: Compound Preparation. Dissslove the compounds into DMSO solution to make 10 mM DMSO stock. Serially dilute the stock solution from highest concentration down to lowest in DMSO to make the compound stock plate (100× stock plates). To make 5× compound intermediate plate, add 38 μL of assay buffer (50 mM HEPES, pH 7.5, 0.05 mg/mL BSA, 10 mM MgCl2, 1 mM EGTA, 0.01% Tween-20, 2 mM DTT) into each well of the V-bottom plate; then transfer 2 μL of the stock compound solution of each concentration from the compound stock plate (100× stock), and mix well. Enzyme reaction. Transfer 2 μL compound from 5× intermediate plate into assay plate, then add 4 μL/well 2.5× Enzyme mix to assay plate, incubation for 10 min at room temperature. For positive control wells, add 4 μL/well assay buffer instead of Enzyme mix. Then add 4 μL/well 2.5× Substrate mix to assay plate, and incubation at 25° C. for 30 min at room temperature. After reaction, 10 μL 2× Detection mix (final 15 mM EDTA, 1× LANCE Detection Buffer, 0.5 nM Detection antibody) was added and incubated for 1 h prior to detection with excitation and emission at 320 and 665 nm (Tecan Spark TR-FRET mode Tecan).

Compound `COCc1cc(C(=O)Nc2cc([C@H]3CC[C@@H](OC(=O)N4CCC5(CCC5)C4)C3)[nH]n2)n(C)n1` [US20250195475, Example 6] has an IC50 of 0.8 nM.

Reference: BindingDB's records for patent US20250195475 (Inventisbio, 2025)
